Source: US10478511B2, “Therapeutic agent for tauopathy and method for screening thereof” (National Center for Geriatrics and Gerontology, priority 2014, dated 2019)

Legend:
tau proteins = conditions: tauopathy model mice, Non-Patent Document 3; cited from earlier work
human tau protein = target: T1, human tau protein (Homo sapiens, UniProt P10636); test: Quantification of aggregated tau in brain of Drosophila expressing human tau in neurons (elav/Y; hTau/+); format: in vivo; conditions: hTau/+ flies, 1 mM in food, bred 1 month, versus non-administration group (100%), FIG. 4
T1 construct: expressed in transfected cells; host or cells: transgenic Drosophila (GAL4-UAS; gmr-gal4 compound eyes or elav^C155-gal4 neurons), fly heads
Protocol: Thereafter, the recovered heads were cryopreserved at −80° C. […] The obtained supernatant was recovered in another ultracentrifuge tube.
Using the screening system established in 3 above, the tau protein aggregation-inhibiting effect of rose bengal, which is a fluorone dye, was evaluated. […] Thereafter, the accumulation of aggregated tau in brain was quantified according to the procedures in (2) above.

[1] = tested on: Drosophila expressing human tau in neurons (elav/Y; hTau/+); test: Motor function (climbing assay, negative gravitaxis) of Drosophila expressing human tau in neurons; format: in vivo; conditions: 1 mM in food, versus non-administration group, FIG. 5
Protocol: (§1) Male F1 Drosophila one to three days after emergence were bred under an environment consisting of a temperature of 25±3° C., a humidity of 60±10%, and a light-dark cycle of 12 hours. […] The flies were transferred into a vial filled with fresh food once every two weeks.
The motor function of Drosophila of was measured by performing climbing assay and evaluating negative gravitaxis. The climbing assay was carried out under the following conditions. Drosophila was transferred into an empty vial containing no food, and the vial was then hit, so that flies fell to the bottom. Thereafter, the movement of the flies climbing up the wall was captured on video. The flies, which were below the line drawn at the position 3 cm from the bottom 10 seconds after they had fallen to the bottom, were defined as “flies that could not climb”, and flies, which were above the aforementioned line, were defined as “flies that could climb”. The number of flies of each type was counted. The total number of flies in the vial was set at 100%, and the percentage of the flies that could climb was calculated.

wild-type Drosophila [2] = test: Survival rate of wild-type Drosophila; conditions: wild-type flies, 1 mM in food, versus non-administration group, FIG. 7
Protocol: as §1
Drosophila were bred under the conditions described in (1) above, and the number of surviving flies was counted every three days, and the survival rate was then calculated.
As a control, the Drosophila in the non-administration group was used.

[3] = tested on: Drosophila expressing human tau in mushroom body neurons (mb/Y; hTau/+); test: Olfactory memory (discrimination learning test with odor and electric shock) of Drosophila expressing human tau in mushroom body neurons; format: in vivo; conditions: hTau/+ flies, administered over 1 week, versus non-administration, FIG. 9
Protocol: as §1

wild-type Drosophila [4] = conditions: in vivo
Protocol: as §1

T1 sequence (P10636 1-441 isoform P10636-8): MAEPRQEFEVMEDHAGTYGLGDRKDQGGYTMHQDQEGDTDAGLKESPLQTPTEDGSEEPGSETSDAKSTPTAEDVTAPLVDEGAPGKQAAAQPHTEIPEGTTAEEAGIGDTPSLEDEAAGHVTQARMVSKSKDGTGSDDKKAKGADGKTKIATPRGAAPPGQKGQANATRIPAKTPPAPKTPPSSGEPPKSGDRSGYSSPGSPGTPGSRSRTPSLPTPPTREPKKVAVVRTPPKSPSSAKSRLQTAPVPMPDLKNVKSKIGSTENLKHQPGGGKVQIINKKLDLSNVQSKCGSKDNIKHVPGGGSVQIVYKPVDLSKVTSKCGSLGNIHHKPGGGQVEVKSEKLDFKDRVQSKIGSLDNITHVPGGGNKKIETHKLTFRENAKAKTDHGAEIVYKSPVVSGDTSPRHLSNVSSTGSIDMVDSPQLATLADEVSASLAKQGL

Structure (SMILES)	accumulation of tau proteins in the brains (tau proteins)	accumulated amount of aggregated tau in brain (human tau protein)	motor function (percentage of flies that could climb) [1]	survival rate (wild-type Drosophila [2])	olfactory memory [3]	olfactory memory (wild-type Drosophila [4])
O=C1NC(=O)C(=O)C(=O)N1 [alloxan]	reduced	–	–	–	–	–
CN(C)c1ccc2nc3ccc(=[N+](C)C)cc-3sc2c1 [methylene blue]	–	reduction	recovered	significantly reduced	–	–
O=C([O-])c1c(Cl)c(Cl)c(Cl)c(Cl)c1-c1c2cc(I)c(=O)c(I)c-2oc2c(I)c([O-])c(I)cc12.[Na+].[Na+] [rose bengal]	–	reduction	recovered	–	significantly improved	no significant change
